According to patent US7338958B2, “Sulfoximine-substituted pyrimidines as CDK-and/or VEGF inhibitors, their production and use as pharmaceutical agents” (Schering AG, priority 2003, dated 2008):

What was measured:
[1] = biological target: T1, VEGF receptor tyrosine kinase-2 (Homo sapiens, UniProt P35968); assay: VEGF Receptor-2 Kinase Assay; format: biochemical; settings: poly-(Glu4Tyr) substrate, 33P-ATP, 10 minutes at 22° C.; read-out: VEGF-R2 IC50
T1 construct: GST; made in house; host or cells: baculovirus-infected insect cells (Sf9)
Method: VEGF Receptor-2 Kinase Assay
Recombinant VEGF receptor tyrosine kinase-2 was purified as a GST fusion protein from baculovirus-infected insect cells (Sf9). Poly-(Glu4Tyr), which was used as a kinase substrate, was purchased by the Sigma Company.
VEGF receptor tyrosine kinase (90 ng/measuring point) was incubated for 10 minutes at 22° C. in the presence of various concentrations of test substances (0 μm, as well as within the range of 0.001-30 μm) in 30 μl of assay buffer [40 mmol of Tris/HCl, […], 10 mmol of MgCl2, 1 mmol of MnCl2, 3 μmol of Na ortho-vanadate, 1.0 mmol of dithiothreitol, 8 μmol of adenosine trisphosphate (ATP), 27 μg/measuring point of poly-(Glu4Tyr), 0.2 μCi/measuring point of 33P-gamma ATP, 1% dimethyl sulfoxide]. The reaction was stopped by adding EDTA solution (250 mmol, pH 7.0, 10 μl/measuring point).
(§1) From each reaction batch, 10 μl was applied to P30 filter strips (Wallac Company), and non-incorporated 33P-ATP was removed by subjecting the filter strips to three washing cycles for 10 minutes each in 0.5% phosphoric acid. After the filter strips were dried for one hour at 70° C., the filter strips were covered with scintillator strips (MeltiLex™ A, Wallac Company) and baked for one hour at 90° C. The amount of incorporated 33P (substrate phosphorylation) was determined by scintillation measurement in a gamma-radiation measuring device (Wallac).

[2] = tested on: MCF7, hormone-independent human breast cancer cells; assay: Proliferation assay, MCF7; format: cell-based; settings: MCF7, 96 h, 4 days incubation, crystal violet
Excerpt: Cultivated human tumor cells (MCF7, hormone-independent human breast cancer cells, related to ATCC HTB22; NCI-H460, human non-small-cell lung cancer cells, ATCC HTB-177, HCT 116, human colon cancer cells, ATCC CCL-247; DU 145, hormone-independent human prostate cancer cells, ATCC HTB-81; MaTu-MDR, hormone-independent, multiple pharmaceutical agent-resistant human breast cancer cells, EPO-GmbH, Berlin) were flattened out at a density of about 5000 cells/measuring point, depending on the growth rate of the respective cells, in a 96-well multititer plate in 200 μl of the corresponding growth medium. After 24 hours, the cells of one plate (zero-point plate) were colored with crystal violet (see below), while the medium of the other plates was replaced by fresh culture medium (200 μl), to which the test substances were added in various concentrations (0 μm, as well as in the range of 0.01-30 μm; the final concentration of the solvent dimethyl sulfoxide was 0.5%). The cells were incubated for 4 days in the presence of test substances. The cell proliferation was determined by coloring the cells with crystal violet: the cells were fixed by adding 20 μl/measuring point of an 11% glutaric aldehyde solution for 15 minutes at room temperature. After three washing cycles of the fixed cells with water, the plates were dried at room temperature. The cells were colored by adding 100 μl/measuring point of a 0.1% crystal violet solution (the pH was set at 3 by adding acetic acid). After three washing cycles of the colored cells with water, the plates were dried at room temperature. The dye was dissolved by adding 100 μl/measuring point of a 10% acetic acid solution. The extinction was determined by photometry at a wavelength of 595 nm. The change of cell growth, in percent, was calculated by normalization of the measured values to the extinction values of the zero-point plate (=0%) and the extinction of the untreated (0 μm) cells (=100%).

CDK1/CycB = biological target: T2, CDK1/CycB (Homo sapiens, UniProt P06493); assay: CDK1/CycB Kinase Assay; format: biochemical; settings: histone IIIS substrate, 33P-ATP, 15 minutes at 22° C.
T2 construct: GST; purchased ProQinase GmbH, Freiburg; host or cells: baculovirus-infected insect cells (Sf9)
Method: Recombinant CDK1- and CycB-GST-fusion proteins, purified from baculovirus-infected insect cells (Sf9), were purchased from ProQinase GmbH, Freiburg. Histone IIIS, used as a kinase substrate, is available commercially from the Sigma Company.
The reaction was stopped by adding EDTA solution (250 mmol, pH 8.0, 14 μl/measuring point).
as §1

T1 sequence (P35968 20-1356): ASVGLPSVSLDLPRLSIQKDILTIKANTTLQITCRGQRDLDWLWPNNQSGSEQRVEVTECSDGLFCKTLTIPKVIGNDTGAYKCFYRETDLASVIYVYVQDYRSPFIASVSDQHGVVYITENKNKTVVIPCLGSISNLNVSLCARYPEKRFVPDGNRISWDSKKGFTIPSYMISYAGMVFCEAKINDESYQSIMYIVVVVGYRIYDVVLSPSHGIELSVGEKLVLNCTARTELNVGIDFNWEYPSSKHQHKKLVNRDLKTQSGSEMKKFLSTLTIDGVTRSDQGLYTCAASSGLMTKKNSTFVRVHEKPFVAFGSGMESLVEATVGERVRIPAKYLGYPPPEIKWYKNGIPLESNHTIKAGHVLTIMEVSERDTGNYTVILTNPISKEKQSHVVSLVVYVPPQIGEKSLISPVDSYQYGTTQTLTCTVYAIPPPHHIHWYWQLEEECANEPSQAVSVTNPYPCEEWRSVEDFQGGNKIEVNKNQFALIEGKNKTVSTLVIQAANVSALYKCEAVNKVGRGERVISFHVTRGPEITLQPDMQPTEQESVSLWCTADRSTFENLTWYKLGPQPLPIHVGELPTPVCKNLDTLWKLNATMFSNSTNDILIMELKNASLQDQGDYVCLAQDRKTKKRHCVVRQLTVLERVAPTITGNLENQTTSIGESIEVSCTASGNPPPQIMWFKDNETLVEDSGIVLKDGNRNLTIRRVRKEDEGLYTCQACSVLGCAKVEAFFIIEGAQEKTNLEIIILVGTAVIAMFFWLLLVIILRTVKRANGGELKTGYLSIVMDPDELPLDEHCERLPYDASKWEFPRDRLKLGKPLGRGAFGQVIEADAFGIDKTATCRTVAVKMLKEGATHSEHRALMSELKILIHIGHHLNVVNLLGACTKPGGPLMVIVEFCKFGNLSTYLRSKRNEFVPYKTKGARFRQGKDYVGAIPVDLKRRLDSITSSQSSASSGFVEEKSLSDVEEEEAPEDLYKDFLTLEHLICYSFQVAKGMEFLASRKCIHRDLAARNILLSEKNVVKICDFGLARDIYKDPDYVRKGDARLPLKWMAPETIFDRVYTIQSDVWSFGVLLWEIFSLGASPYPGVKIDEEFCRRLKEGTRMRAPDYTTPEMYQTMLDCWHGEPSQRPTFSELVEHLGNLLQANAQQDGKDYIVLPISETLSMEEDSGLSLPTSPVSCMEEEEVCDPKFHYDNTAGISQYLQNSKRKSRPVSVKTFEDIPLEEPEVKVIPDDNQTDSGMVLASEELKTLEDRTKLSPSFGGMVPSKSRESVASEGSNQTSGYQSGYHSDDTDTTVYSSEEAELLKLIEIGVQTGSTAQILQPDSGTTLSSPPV
T2 sequence (P06493 whole entry): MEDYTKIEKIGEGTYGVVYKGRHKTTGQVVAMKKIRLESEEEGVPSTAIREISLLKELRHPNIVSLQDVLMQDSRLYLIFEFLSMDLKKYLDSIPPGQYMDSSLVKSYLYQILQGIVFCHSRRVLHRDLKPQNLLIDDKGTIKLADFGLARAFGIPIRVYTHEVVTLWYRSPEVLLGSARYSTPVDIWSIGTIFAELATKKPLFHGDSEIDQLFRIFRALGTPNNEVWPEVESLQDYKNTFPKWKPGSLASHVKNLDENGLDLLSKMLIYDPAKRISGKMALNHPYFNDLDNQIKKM
T2 sequence (P14635 whole entry partner): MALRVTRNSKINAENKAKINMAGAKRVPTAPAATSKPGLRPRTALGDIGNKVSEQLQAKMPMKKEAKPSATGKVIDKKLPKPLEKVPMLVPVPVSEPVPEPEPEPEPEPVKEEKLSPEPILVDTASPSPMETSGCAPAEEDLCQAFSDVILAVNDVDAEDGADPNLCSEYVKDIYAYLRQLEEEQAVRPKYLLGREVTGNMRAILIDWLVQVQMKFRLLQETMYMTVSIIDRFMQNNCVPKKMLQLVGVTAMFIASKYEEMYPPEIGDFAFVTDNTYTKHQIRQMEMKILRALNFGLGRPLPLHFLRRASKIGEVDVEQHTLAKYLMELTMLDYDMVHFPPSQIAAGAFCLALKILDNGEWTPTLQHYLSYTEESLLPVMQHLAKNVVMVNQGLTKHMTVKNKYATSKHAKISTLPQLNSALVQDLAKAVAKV

SMILES	IC50 [1] [nM]	IC50 [2] [nM]	IC50 (CDK1/CycB) [nM]
COc1cc(Nc2ncc(Br)c(N[C@H](C)[C@@H](C)O)n2)ccc1S(C)(=N)=O (single isomer, unassigned) [Example 1.25]		< 100	
CC(O)CSc1nc(Nc2ccc(S(C)(=N)=O)cc2)ncc1Br (racemic) [Example 3.4, (RS)-S-[4-({5-bromo-4-[(RS)-(2-hydroxy-propyl)sulfanyl]pyrimidin-2-yl}amino)phenyl]-S-methyl sulfoximide]		1000	72
Cc1cc(Nc2ncc(Br)c(N[C@H](C)C(C)(C)O)n2)ccc1S(C)(=N)=O (mixture of isomers) [Example 1.59, (RS)-S-[4-({5-bromo-4-[(R)-(2-hydroxy-1,2-dimethylpropyl)amino]pyrimidin-2-yl}amino)-2-methylphenyl]-S-methyl sulfoximide]	48		
C[C@@H](O)[C@@H](C)Nc1nc(Nc2ccc(S(C)(=N)=O)cc2)ncc1Br (mixture of isomers) [Example 1.43, (RS)-S-[4-({5-bromo-4-[(1R,2R)-(2-hydroxy-1-methylpropyl)amino]pyrimidin-2-yl}amino)phenyl]-S-methyl sulfoximide]		< 100	
COC[C@@H](Nc1nc(Nc2ccc(S(C)(=N)=O)cc2)ncc1Br)[C@@H](C)O (mixture of isomers) [Example 1.47, (RS)-S-{4-[(5-bromo-4-{[(1R,2R)-2-hydroxy-1-(methoxymethyl)-propyl]amino}pyrimidin-2-yl)amino]phenyl}-S-methyl sulfoximide]			27

Now from value to molecule:

IC50 [1] [nM]	IC50 [2] [nM]	IC50 (CDK1/CycB) [nM]	SMILES
45			Cc1cc(Nc2ncc(Br)c(N[C@H](C)C(C)(C)O)n2)ccc1S(C)(=N)=O (mixture of isomers) [Example 1.58, (RS)-S-[4-({5-bromo-4-[(R)-(2-hydroxy-1,2-dimethylpropyl)amino]pyrimidin-2-yl}amino)-2-methylphenyl]-S-methyl sulfoximide]
66	< 100		Cc1cc(Nc2ncc(Br)c(N[C@H](C)C(C)(C)O)n2)ccc1S(C)(=N)=O (mixture of isomers) [Example 1.57, (RS)-S-[4-({5-bromo-4-[(R)-(2-hydroxy-1,2-dimethylpropyl)amino]pyrimidin-2-yl}amino)-2-methylphenyl]-S-methyl sulfoximide]
230			CCS(=N)(=O)c1ccc(Nc2ncc(Br)c(N[C@H](COC)[C@@H](C)O)n2)cc1 (mixture of isomers) [Example 1.50, (RS)-S-{4-[(5-bromo-4-{[(1R,2R)-2-hydroxy-1-(methoxymethyl)-propyl]amino}pyrimidin-2-yl)amino]phenyl}-S-ethyl sulfoximide]
470			CCS(=N)(=O)c1ccc(Nc2ncc(Br)c(N[C@H](COC)[C@@H](C)O)n2)cc1 (mixture of isomers) [Example 1.49, (RS)-S-{4-[(5-bromo-4-{[(1R,2R)-2-hydroxy-1-(methoxymethyl)-propyl]amino}pyrimidin-2-yl)amino]phenyl}-S-ethyl sulfoximide]
		11	CCS(=N)(=O)c1ccc(Nc2ncc(Br)c(N[C@H](C)[C@@H](C)O)n2)cc1 (mixture of isomers) [Example 1.53, (RS)-S-[4-({5-bromo-4-[(1R,2R)-(2-hydroxy-1-methylpropyl)amino]pyrimidin-2-yl}amino)phenyl]-S-ethyl sulfoximide]
450	1000	200	CCOC(=O)N=S(=O)(CC)c1ccc(Nc2ncc(Br)c(N[C@H](COC)[C@@H](C)O)n2)cc1 (mixture of isomers) [Example 1.33, (RS)-S-{4-[(5-bromo-4-{[(1R,2R)-2-hydroxy-1-(methoxymethyl)propyl]amino}pyrimidin-2-yl)amino]phenyl}-N-(ethoxycarbonyl)-S-ethyl sulfoximide]
	< 100	5	C[C@@H](O)[C@@H](C)Oc1nc(Nc2ccc(S(=N)(=O)CCO)cc2)ncc1Br (mixture of isomers) [Example 1.21, (RS)-S-[4-({5-bromo-4-[(1R,2R)-2-hydroxy-1-methyl-propoxy]pyrimidin-2-yl}amino)phenyl]-S-(2-hydroxyethyl)sulfoximide]
